Tests used:
Type in all cases: biochemical
[1] = target: BlaC (β-lactamase of Mycobacterium tuberculosis) (Mycobacterium tuberculosis, UniProt P9WKD3, K250R)
[2] = target: BlaC (β-lactamase of Mycobacterium tuberculosis) (Mycobacterium tuberculosis, UniProt P9WKD3, R229S)
[3] = target: T1, BlaC (β-lactamase of Mycobacterium tuberculosis) (Mycobacterium tuberculosis, UniProt P9WKD3, G144N)
[4] = target: T1, BlaC (β-lactamase of Mycobacterium tuberculosis); remark: listed apart in the source

| SMILES | nitrocefin hydrolysis progress curves with 10 μM clavulanic acid (reduced inhibi) [1] | nitrocefin hydrolysis progress curves with 10 μM clavulanic acid [2] | nitrocefin hydrolysis progress curves with 10 μM clavulanic acid (reduced inhibi) [3] | nitrocefin hydrolysis by purified enzyme [4] |
| --- | --- | --- | --- | --- |
| O=C(O)[C@H]1/C(=C/CO)O[C@@H]2CC(=O)N21 [clavulanic acid] | The G132N and K234R mutations convey resistance to inhibition, maintaining some level of activity even after prolonged exposure. | The R213S mutant was found to require more time than wt BlaC to reach full inhibition. | The G132N and K234R mutations convey resistance to inhibition, maintaining some level of activity even after prolonged exposure. |  |
| O=C(Cc1cccs1)N[C@@H]1C(=O)N2C(C(=O)O)=C(/C=C/c3ccc([N+](=O)[O-])cc3[N+](=O)[O-])CS[C@H]12 [nitrocefin] |  |  |  | is plotted for wild-type (WT) BlaC and single-amino-acid mutants |
